46 compounds from ChEMBL document CHEMBL3046641, “QSAR study of some CCR5 antagonists as anti-HIV agents using radial basis function neural network and general regression neural network on the basis of principal components” (Med Chem Res, 2012) can be followed below.

The target of the test is C-C chemokine receptor type 5 (Homo sapiens, UniProt P51681). Description: Antagonist activity at Homo sapiens (human) CCR5 receptor.
C-C chemokine receptor type 5, sequence (P51681 whole entry): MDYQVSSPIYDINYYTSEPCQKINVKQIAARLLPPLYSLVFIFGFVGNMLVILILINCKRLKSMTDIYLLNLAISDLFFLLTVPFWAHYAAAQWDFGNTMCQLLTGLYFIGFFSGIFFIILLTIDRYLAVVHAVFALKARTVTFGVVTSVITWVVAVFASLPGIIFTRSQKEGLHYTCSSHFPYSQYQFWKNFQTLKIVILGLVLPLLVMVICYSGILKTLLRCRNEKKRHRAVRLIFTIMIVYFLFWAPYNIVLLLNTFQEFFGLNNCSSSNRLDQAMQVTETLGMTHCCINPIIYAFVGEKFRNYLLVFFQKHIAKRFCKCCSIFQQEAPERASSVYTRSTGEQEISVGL

Consider `CN(C[C@@H](CCN1CCC2(CC1)C[S+]([O-])c1ccccc12)c1ccc(Cl)c(Cl)c1)S(=O)(=O)c1cncc2ccccc12` (stereo partly specified), for which the IC50 is 1000 nM. Turning to `CN(C[C@@H](CCN1CCC2(CC1)C[S+]([O-])c1ccccc12)c1ccc(Cl)c(Cl)c1)S(=O)(=O)c1cn(C)cn1` (stereo partly specified), it took 1000 nM to reach half-maximal inhibition (IC50). For `CN(C[C@@H](CCN1CCC2(CC1)CNC(=O)c1ccccc12)c1ccc(Cl)c(Cl)c1)S(=O)(=O)c1cccc([N+](=O)[O-])c1` the value was 600 nM. In the case of `CN(C[C@@H](CCN1CCC2(CC1)CC(=O)Nc1ccccc12)c1ccc(Cl)c(Cl)c1)S(=O)(=O)c1cccc([N+](=O)[O-])c1`, the IC50 is 7000 nM. For `CN(C[C@@H](CCN1CCC2(CC1)C[S+]([O-])c1ccccc12)c1ccc(Cl)c(Cl)c1)S(=O)(=O)c1ccc2c(c1)CCC2` (stereo partly specified), the IC50 was 5900 nM. In the case of `CN(C[C@@H](CCN1CCC2(CC1)NC(=O)c1ccccc12)c1cccc(Cl)c1)S(=O)(=O)c1ccccc1`, the IC50 is 300 nM. Compound `CN(C[C@@H](CCN1CCC(CCCc2ccccc2)CC1)c1cccc(Cl)c1)S(=O)(=O)c1ccccc1` showed an IC50 of 50 nM. Against the preceding compound, the IC50 is about 6-fold lower. For `CN(C[C@@H](CCN1CCC(c2ccccc2)CC1)c1cccc(Cl)c1)S(=O)(=O)c1ccccc1` the value was 10000 nM; for `CN(C[C@@H](CCN1CCC2(CC1)CNc1ccccc12)c1cccc(Cl)c1)S(=O)(=O)c1ccccc1`, 1200 nM. For `CN(C[C@@H](CCN1CCC2(CC1)CS(=O)(=O)c1ccccc12)c1ccc(Cl)c(Cl)c1)S(=O)(=O)c1ccc([N+](=O)[O-])cc1` the value was 700 nM; for `CN(C[C@@H](CCN1CCC2(CC1)CS(=O)(=O)c1ccccc12)c1ccc(Cl)c(Cl)c1)S(=O)(=O)c1cccc([N+](=O)[O-])c1`, 800 nM.

`CN(C[C@@H](CCN1CCC2(CC1)C[S+]([O-])c1ccccc12)c1ccc(Cl)c(Cl)c1)S(=O)(=O)c1cccc2cccnc12` (stereo partly specified) had a half-inhibitory concentration (IC50) of 14000 nM. In turn, `CN(C[C@@H](CCN1CCC2(CC1)C[S+]([O-])c1ccccc12)c1ccc(Cl)c(Cl)c1)S(=O)(=O)c1ccc2ccccc2c1` (stereo partly specified) showed an IC50 of 3400 nM. For `CN(C[C@@H](CCN1CCC2(CC1)C[S+]([O-])c1ccccc12)c1ccc(Cl)c(Cl)c1)S(=O)(=O)c1cccc2ccccc12` (stereo partly specified) the value was 2600 nM; for `CN(C[C@@H](CCN1CCC2(CC1)C[S+]([O-])c1ccccc12)c1ccc(Cl)c(Cl)c1)S(=O)(=O)c1ccc(-c2ccccc2)cc1` (stereo partly specified), 1000 nM; for `CN(C[C@@H](CCN1CCC2(CC1)CSc1ccccc12)c1ccc(Cl)c(Cl)c1)S(=O)(=O)c1ccccc1`, 400 nM. The compound `CN(C[C@@H](CCN1CCC2(CC1)CS(=O)(=O)c1ccccc12)c1ccc(Cl)c(Cl)c1)S(=O)(=O)c1ccccc1` showed an IC50 of 400 nM. The compound `COc1ccccc1C1CCN(CC[C@H](CN(C)S(=O)(=O)c2ccccc2)c2cccc(Cl)c2)CC1` had an IC50 of 1000 nM. This IC50 is about 2.5-fold higher than that of the compound before. The value for `Cc1ccccc1N1CCN(CC[C@H](CN(C)S(=O)(=O)c2ccccc2)c2cccc(Cl)c2)CC1` was 350 nM. The value for `CN(C[C@@H](CCN1CCC2(CC1)CC(O)c1ccccc12)c1cccc(Cl)c1)S(=O)(=O)c1ccccc1` (stereo partly specified) was 24000 nM; that for `CN(C[C@@H](CCN1CCC2(CC1)CSc1ccccc12)c1cccc(Cl)c1)S(=O)(=O)c1ccccc1` was 600 nM. In the case of `CN(C[C@@H](CCN1CCC(Cc2ccccc2)CC1)c1cccc(Cl)c1)S(=O)(=O)c1ccccc1`, 650 nM corresponded to half-maximal inhibition (IC50). Compound `CN(C[C@@H](CCN1CCC(c2cccc(C(F)(F)F)c2)CC1)c1cccc(Cl)c1)S(=O)(=O)c1ccccc1` showed a concentration for half-maximal inhibition (IC50) of 2000 nM. Compared with the last compound, the IC50 is about 3.1-fold higher. For `CN(C[C@@H](CCN1CCC2(CC1)CC(=O)c1ccccc12)c1cccc(Cl)c1)S(=O)(=O)c1ccccc1` the value was 3400 nM; for `CN(C[C@@H](CCN1CCC2(CC1)CS(=O)(=O)c1ccccc12)c1cccc(Cl)c1)S(=O)(=O)c1ccccc1`, 1000 nM; for `CN(C[C@@H](CCN1CCC2(CC1)C[S+]([O-])c1ccccc12)c1cccc(Cl)c1)S(=O)(=O)c1ccccc1` (stereo partly specified), 700 nM. The value for `CN1C(=O)c2ccccc2C12CCN(CC[C@H](CN(C)S(=O)(=O)c1ccccc1)c1cccc(Cl)c1)CC2` was 1500 nM; that for `CN(C[C@@H](CCN1CCC2(CC1)Cc1ccccc1O2)c1cccc(Cl)c1)S(=O)(=O)c1ccccc1` was 4000 nM. With `CN(C[C@@H](CCN1CCC(CCc2ccccc2)CC1)c1cccc(Cl)c1)S(=O)(=O)c1ccccc1`, the IC50 was 600 nM. For `CN(C[C@@H](CCN1CCC(c2ccc(F)cc2)CC1)c1cccc(Cl)c1)S(=O)(=O)c1ccccc1` the value was 2500 nM; for `CN(C[C@@H](CCN1CCC(c2ccc(Cl)cc2)CC1)c1cccc(Cl)c1)S(=O)(=O)c1ccccc1`, 250 nM; for `Cc1ccccc1C1CCN(CC[C@H](CN(C)S(=O)(=O)c2ccccc2)c2cccc(Cl)c2)CC1`, 1200 nM. The value for `CN(C[C@@H](CCN1CCC2(CCc3ccccc32)CC1)c1cccc(Cl)c1)S(=O)(=O)c1ccccc1` was 899 nM; that for `COc1ccc(S(=O)(=O)N(C)C[C@@H](CCN2CCC3(CC2)C[S+]([O-])c2ccccc23)c2ccc(Cl)c(Cl)c2)cc1` (stereo partly specified) was 350 nM. In the case of `CN(C[C@@H](CCN1CCC2(CC1)C[S+]([O-])c1ccccc12)c1ccc(Cl)c(Cl)c1)S(=O)(=O)C1CCCC1` (stereo partly specified), the half-maximal inhibitory concentration (IC50) was 500 nM. `CN(C[C@@H](CCN1CCC2(CC1)C[S+]([O-])c1ccccc12)c1ccc(Cl)c(Cl)c1)S(=O)(=O)Cc1ccccc1` (stereo partly specified) showed a 50% inhibitory concentration (IC50) of 100 nM.

Turning to `CN(C[C@@H](CCN1CCC2(CC1)C[S+]([O-])c1ccccc12)c1ccc(Cl)c(Cl)c1)S(=O)(=O)c1ccccc1Cl` (stereo partly specified), the half-inhibitory concentration (IC50) is 450 nM. For `CN(C[C@@H](CCN1CCC2(CC1)C[S+]([O-])c1ccccc12)c1ccc(Cl)c(Cl)c1)S(=O)(=O)c1cccc(Cl)c1` (stereo partly specified) the value was 1000 nM. For `CN(C[C@@H](CCN1CCC2(CC1)C[S+]([O-])c1ccccc12)c1ccc(Cl)c(Cl)c1)S(=O)(=O)C1CCCCC1` (stereo partly specified) the value was 50 nM; for `CN(C[C@@H](CCN1CCC2(CC1)CS(=O)(=O)c1ccccc12)c1ccc(Cl)c(Cl)c1)S(=O)(=O)c1cccs1`, 1200 nM. The value for `CN(C[C@@H](CCN1CCC2(CC1)C[S+]([O-])c1ccccc12)c1ccc(Cl)c(Cl)c1)S(=O)(=O)c1cccnc1` (stereo partly specified) was 8490 nM.

In turn, `CN(C[C@@H](CCN1CCC2(CC1)C[S+]([O-])c1ccccc12)c1ccc(Cl)c(Cl)c1)S(C)(=O)=O` (stereo partly specified) had a half-inhibitory concentration (IC50) of 150 nM. Compared with the last compound, the IC50 is about 57-fold lower. As to `CN(C[C@@H](CCN1CCC2(CC1)C[S+]([O-])c1ccccc12)c1ccc(Cl)c(Cl)c1)S(=O)(=O)c1cccs1` (stereo partly specified), the IC50 was 3600 nM.

Take `CN(C)S(=O)(=O)N(C)C[C@@H](CCN1CCC2(CC1)C[S+]([O-])c1ccccc12)c1ccc(Cl)c(Cl)c1` (stereo partly specified): the concentration for half-maximal inhibition (IC50) was 2700 nM.

The compound `CN(C[C@@H](CCN1CCC2(CC1)C[S+]([O-])c1ccccc12)c1ccc(Cl)c(Cl)c1)S(=O)(=O)c1ccc(Cl)cc1` (stereo partly specified) showed a half-maximal inhibitory concentration (IC50) of 350 nM. For `CCCCCCCCS(=O)(=O)N(C)C[C@@H](CCN1CCC2(CC1)C[S+]([O-])c1ccccc12)c1ccc(Cl)c(Cl)c1` (stereo partly specified) the value was 1800 nM.

By IC50 is commonly meant the midpoint of a concentration-inhibition curve.
